Reference: patent US7935722B2 (Eli Lilly and Company, priority 2005, dated 2011)
Where two headings read alike, the source gives them in different places.

How the values were obtained:
[1] = target: T1, human androgen receptor (AR) (Homo sapiens, UniProt P10275); assay: C2C12 AR/ARE reporter assay; assay type: cell-based
T1 construct: expressed in transfected cells; host or cells: mouse myoblast C2C12 cells, transiently co-transfected
T1 sequence (P10275 1-920): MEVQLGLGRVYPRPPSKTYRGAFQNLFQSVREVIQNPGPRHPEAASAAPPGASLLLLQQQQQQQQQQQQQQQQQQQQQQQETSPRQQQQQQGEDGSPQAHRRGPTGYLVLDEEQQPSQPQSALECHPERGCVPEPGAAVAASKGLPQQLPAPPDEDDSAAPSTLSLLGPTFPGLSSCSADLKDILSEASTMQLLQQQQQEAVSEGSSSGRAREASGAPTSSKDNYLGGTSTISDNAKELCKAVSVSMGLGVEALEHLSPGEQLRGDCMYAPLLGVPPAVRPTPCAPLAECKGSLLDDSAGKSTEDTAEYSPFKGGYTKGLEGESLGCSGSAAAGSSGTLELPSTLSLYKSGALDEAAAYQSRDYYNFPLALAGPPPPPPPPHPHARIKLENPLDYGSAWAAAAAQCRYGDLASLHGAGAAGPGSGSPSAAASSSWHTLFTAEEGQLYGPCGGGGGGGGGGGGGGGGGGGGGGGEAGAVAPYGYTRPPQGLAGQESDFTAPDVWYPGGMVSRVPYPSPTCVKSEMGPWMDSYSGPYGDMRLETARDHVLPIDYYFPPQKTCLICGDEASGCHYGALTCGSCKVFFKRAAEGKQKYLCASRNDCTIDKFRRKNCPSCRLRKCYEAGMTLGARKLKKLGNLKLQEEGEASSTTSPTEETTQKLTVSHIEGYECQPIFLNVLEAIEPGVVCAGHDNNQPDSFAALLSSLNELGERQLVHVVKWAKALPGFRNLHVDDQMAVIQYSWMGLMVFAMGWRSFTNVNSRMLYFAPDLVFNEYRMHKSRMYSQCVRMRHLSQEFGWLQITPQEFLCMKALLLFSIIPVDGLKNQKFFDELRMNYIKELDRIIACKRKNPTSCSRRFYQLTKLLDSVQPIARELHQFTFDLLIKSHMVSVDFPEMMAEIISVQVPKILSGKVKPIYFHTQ
Outline: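 Mouse C2C12 myoblasts co-transfected with AR/ARE reporter were plated in charcoal-stripped serum and treated for 48 h with compound from about 0.01 nM to 10 μM. Luciferase activity gave EC50 by 4-parameter logistic fit. Efficacy is expressed as % of maximal stimulation by 10 nM methyltrienolone.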

[2] = target: T2, human AR (androgen receptor) (Homo sapiens, UniProt P10275); assay: Steroid hormone nuclear receptor binding assay, AR binding
T2 construct: expressed in transfected cells; host or cells: 293 cells (293-AR lysate)
T2 sequence (P10275 1-920): T1 sequence (P10275 1-920)
Outline: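 Competition binding with lysates of 293 cells overexpressing human AR, [3H]-methyltrienolone tracer, compounds from about 0.01 nM to 10 μM, overnight at 4 °C; non-specific binding set with 500 nM methyltrienolone. Bound tracer counted by scintillation after charcoal-dextran separation; IC50 converted to Ki by Cheng-Prusoff using Kd from saturation binding.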

[3] = C2C12, read-out: C2C12 % Efficacy

Row | Structure (SMILES) | melting point | Emax ([1]; C2C12 AR/ARE reporter assay, average of n trials, read-out: C2C12 % Efficacy) | EC50 ([1]; C2C12 AR/ARE reporter assay, average of n trials, read-out: C2C12 EC50) | Ki ([2]; average of n trials, read-out: AR binding Ki) | Emax [1, 3] | Ki [2] | EC50 [1]
1 | CCOC(=O)Nc1ccc2c(c1)c1c(n2Cc2cccc(F)c2)CC[C@@H](NC(=O)C(C)C)C1 [Example 189, (R)-[9-(3-Fluoro-benzyl)-6-isobutyrylamino-6,7,8,9-tetrahydro-5H-carbazol-3-yl]-carbamic acid ethyl ester] | 169 to 171 °C | 52.9% | 1.2 nM | 8.3 nM | – | – | –
2 | CC(C)C(=O)NC1CCc2c(c3cc(F)ccc3n2Cc2ccccc2Cl)C1 (stereo not shown) [Example 5] | 155 to 157 °C | – | – | – | 80.3% | 24.6 nM | –
3 | CC(C)C(=O)NC1CCc2c(c3cccc(F)c3n2Cc2cccc(F)c2)C1 (stereo not shown) [Example 58] | 185 to 188 °C | – | – | – | 62.1% | – | –
4 | CC(C)C(=O)NC1CCc2c(c3cc(Cl)ccc3n2Cc2ccccc2)C1 (stereo not shown) [Example 16] | 174 to 176 °C | – | – | – | 86% | – | –
5 | CC(C)C(=O)NC1CCc2c(c3cc(Br)ccc3n2Cc2ccc(Cl)cc2)C1 (stereo not shown) [Example 40] | 142 to 149 °C | – | – | – | 68% | 30.9 nM | 188 nM
6 | COc1cccc(Cn2c3c(c4cc(Br)ccc42)CC(NC(=O)C(C)C)CC3)c1 (stereo not shown) [Example 37] | 176 to 180 °C | – | – | – | 95.5% | 9.1 nM | 109 nM
7 | CC(C)C(=O)NC1CCc2c(c3cc(F)ccc3n2Cc2ccc(Cl)cc2)C1 (stereo not shown) [Example 13] | 188 to 190 °C | – | – | – | 55.5% | 33.5 nM | 1030 nM
8 | CC(C)C(=O)N[C@@H]1CCc2c(c3cc(Br)ccc3n2Cc2cccc(F)c2)C1 [Example 122] | 204 to 207 °C | – | – | – | – | – | –
9 | CC(C)C(=O)NC1CCc2c(c3cc(-c4nccs4)ccc3n2Cc2cccc(F)c2)C1 (stereo not shown) [Example 130, N-[9-(3-Fluorobenzyl)-6-thiazol-2-yl-2,3,4,9-tetrahydro-1H-carbazol-3-yl]isobutyramide] | 221 to 225 °C | – | – | – | 85.6% | 13.6 nM | 5 nM
10 | CC(C)C(=O)NC1CCc2c(c3cc(C(N)=O)ccc3n2Cc2cccc(F)c2)C1 (stereo not shown) [Example 63, 9-(3-Fluorobenzyl)-6-isobutyrylamino-6,7,8,9-tetrahydro-5H-carbazole-3-carboxylic acid amide] | 192 to 194 °C | – | – | – | 113% | 39.3 nM | 66.9 nM
11 | N#Cc1ccc2c(c1)c1c(n2Cc2cccc(F)n2)CC[C@@H](NC(=O)C2CC2)C1 [Example 195, Cyclopropanecarboxylic acid[6-cyano-9-(6-fluoro-pyridin-2-ylmethyl)-2,3,4,9-tetrahydro-1H-carbazol-3-yl]-amide] | 243 to 245 °C | – | – | – | 96.5% | 4.3 nM | 2.7 nM
12 | CC(C)C(=O)NC1CCc2c(c3cc4c(cc3n2Cc2cccc(F)c2)OC(F)(F)O4)C1 (stereo not shown) [Example 99, N-[2,2-Difluoro-9-(3-fluoro-benzyl)-6,7,8,9-tetrahydro-5H-1,3-dioxa-9-aza-cyclopenta[b]fluoren-6-yl]-isobutyramide] | 197 to 199 °C | – | – | – | 69% | 6.2 nM | 9.4 nM
13 | CC(C)C(=O)NC1CCc2c(c3cc(Cl)ccc3n2Cc2cc(F)cc(F)c2)C1 (stereo not shown) [Example 29] | 207 to 210 °C | – | – | – | 64% | – | –
14 | CC(C)C(=O)NC1CCc2c(c3cc(Cl)ccc3n2Cc2cccc(C#N)c2)C1 (stereo not shown) [Example 24] | 225 to 228 °C (dec.) | – | – | – | 48.9% | – | –
15 | CC(C)C(=O)NC1CCc2c(c3cc(Cl)ccc3n2Cc2ccc(C#N)cc2)C1 (stereo not shown) [Example 28] | 158 to 162 °C | – | – | – | 64.3% | 12.8 nM | 301 nM
16 | CC(C)C(=O)NC1CCc2c(c3cc(C#N)ccc3n2Cc2ccc(F)cn2)C1 (stereo not shown) [Example 181, N-[6-Cyano-9-(5-fluoro-pyridin-2-ylmethyl)-2,3,4,9-tetrahydro-1H-carbazol-3-yl]-isobutyramide] | 235 to 238 °C (dec.) | – | – | – | 93.5% | 34.6 nM | 87.8 nM
17 | CC(C)C(=O)NC1CCc2c(c3cc(S(C)(=O)=O)ccc3n2Cc2cccc(F)c2)C1 (stereo not shown) [Example 53] | 205 to 207 °C | – | – | – | 107% | 21.6 nM | 24.3 nM

Row | Structure (SMILES) | melting point | Emax ([1]; C2C12 AR/ARE reporter assay, average of n trials, read-out: C2C12 % Efficacy) | EC50 ([1]; C2C12 AR/ARE reporter assay, average of n trials, read-out: C2C12 EC50) | Ki ([2]; average of n trials, read-out: AR binding Ki) | Emax [1, 3] | Ki [2] | EC50 [1]
18 | CC(C)C(=O)NC1CCc2c(c3cc(F)ccc3n2Cc2ccccc2F)C1 (stereo not shown) [Example 4] | 156 to 158 °C | – | – | – | 36.1% | – | –
19 | CC(C)C(=O)NC1CCc2c(c3cc(Br)ccc3n2Cc2cccc(Cl)c2)C1 (stereo not shown) [Example 36] | 186 to 188 °C | – | – | – | 99.4% | 7.6 nM | 20.7 nM
20 | CC(C)C(=O)NC1CCc2c(c3cc(Br)ccc3n2Cc2ccccc2Cl)C1 (stereo not shown) [Example 32] | 196 to 198 °C | – | – | – | 94.3% | – | –
21 | COc1ccccc1Cn1c2c(c3cc(Cl)ccc31)CC(NC(=O)C(C)C)CC2 (stereo not shown) [Example 19, N-[6-chloro-9-(2-methoxy-benzyl)-2,3,4,9-tetrahydro-1H-carbazol-3-yl]-isobutyramide] | 141 to 149 °C | – | – | – | 63.2% | 37.8 nM | 245 nM
22 | CC(C)C(=O)N[C@@H]1CCc2c(c3cc(-c4ccno4)ccc3n2Cc2cccc(F)c2)C1 [Example 192, (R)-N-[9-(3-Fluoro-benzyl)-6-isoxazol-5-yl-2,3,4,9-tetrahydro-1H-carbazol-3-yl]-isobutyramide] | 238 to 241 °C | – | – | – | 66.5% | 2.6 nM | 7.7 nM
23 | CC(C)C(=O)NC1CCc2c(c3cc(Br)ccc3n2Cc2ccccc2)C1 (stereo not shown) [Example 30] | 173 to 177 °C | – | – | – | 87% | – | –
24 | Cc1ccc2c(c1)c1c(n2Cc2cccc(F)c2)CCC(NC(=O)C(C)C)C1 (stereo not shown) [Example 47] | 215 to 217 °C | – | – | – | 86.3% | – | –
25 | COc1ccccc1Cn1c2c(c3cc(Br)ccc31)CC(NC(=O)C(C)C)CC2 (stereo not shown) [Example 34] | 108 to 111 °C | – | – | – | 103% | – | –
26 | CC(C)C(=O)NC1CCc2c(c3cc(C#N)ccc3n2Cc2cccc(F)c2)C1 (stereo not shown) [Example 51, N-(6-cyano-9-(3-fluorobenzyl)-2,3,4,9-tetrahydro-1H-carbazol-3-yl)isobutyramide] | 195 to 199 °C | – | – | – | 87.5% | – | –
27 | CC(C)C(=O)NC1CCc2c(c3cc(Cl)ccc3n2Cc2ccc(F)cc2)C1 (stereo not shown) [Example 25] | 175 to 178 °C | – | – | – | 62.7% | – | –
28 | CC(C)C(=O)NC1CCc2c(c3ccc(Cl)cc3n2Cc2cccc(F)c2)C1 (stereo not shown) [Example 56] | 233 to 235 °C | – | – | – | 66.6% | – | –
29 | CC(C)C(=O)NC1CCc2c(c3cc(Cl)ccc3n2Cc2cccc(F)c2)C1 (stereo not shown) [Example 21] | 187 to 189 °C | – | – | – | 81% | – | –
30 | COc1cccc(Cn2c3c(c4cc(Cl)ccc42)CC(NC(=O)C(C)C)CC3)c1 (stereo not shown) [Example 23] | 178 to 181 °C | – | – | – | 54.4% | – | –
31 | COc1ccc2c(c1)c1c(n2Cc2ccccn2)CCC(NC(=O)C(C)C)C1 (stereo not shown) [Example 143, N-(6-methoxy-9-pyridin-2-ylmethyl-2,3,4,9-tetrahydro-1H-carbazol-3-yl)-isobutyramide] | – | – | – | – | 80.3% | 362 nM | 351 nM
32 | CC(C)C(=O)NC1CCc2c(c3cc(C#N)c(Cl)cc3n2Cc2cccc(F)c2)C1 (stereo not shown) [Example 118, N-[7-Chloro-6-cyano-9-(3-fluoro-benzyl)-2,3,4,9-tetrahydro-1H-carbazol-3-yl]-isobutyramide] | – | – | – | – | 124% | 5.9 nM | 31.7 nM
33 | CC(C)C(=O)NC1CCc2c(c3cc(C#N)ccc3n2Cc2cc(F)cc(F)c2)C1 (stereo not shown) [Example 89] | – | – | – | – | 78.5% | 3.3 nM | 1.9 nM
34 | CCC(=O)NC1CCc2c(c3cc(Br)ccc3n2Cc2cccc(F)c2)C1 (stereo not shown) [Example 175] | – | – | – | – | 80.2% | 3.2 nM | 11.2 nM
